Assay: xn = mol fraction of the nth substance listed

CC(C)(C)O + Cc1ccccc1
viscosity [mPa·s]
Conditions	298.15 K	303.15 K	308.15 K	313.15 K	318.15 K
101 kPa, x2 = 0.1121	2.432	1.991	1.63	1.282	1.05
101 kPa, x2 = 0.1785	1.717	1.462	1.245	1.027	0.8744
101 kPa, x2 = 0.3151	1.113	0.9909	0.8824	0.7677	0.6837
101 kPa, x2 = 0.3919	0.9507	0.8583	0.7749	0.6855	0.6188
101 kPa, x2 = 0.4958	0.7975	0.7306	0.6693	0.6025	0.552
101.33 kPa, x2 = 0.1003	–	1.981	1.622	1.328	–
101.33 kPa, x2 = 0.1723	–	1.455	1.239	1.059	–
101.33 kPa, x2 = 0.3109	–	0.986	0.878	0.781	–
101.33 kPa, x2 = 0.3886	–	0.854	0.771	0.696	–
101.33 kPa, x2 = 0.4942	–	0.727	0.666	0.611	–
101.33 kPa, x2 = 0.6059	–	0.644	0.594	0.548	–
101.33 kPa, x2 = 0.7118	–	0.588	0.547	0.51	–
101.33 kPa, x2 = 0.8135	–	0.549	0.518	0.486	–
101.33 kPa, x2 = 0.9107	–	0.521	0.49	0.46	–

Nc1ccccc1 + Cc1ccccc1
viscosity [mPa·s], 101 kPa
Conditions	298.15 K	303.15 K	308.15 K	313.15 K
x1 = 0.0977	0.62	0.576	0.545	0.495
x1 = 0.1155	–	–	0.5602	–
x1 = 0.116	0.5955	–	–	–
x1 = 0.198	0.701	0.653	0.615	0.57
x1 = 0.2272	0.681	–	–	–
x1 = 0.2298	–	–	0.7052	–
x1 = 0.3004	0.814	0.752	0.72	0.65
x1 = 0.3224	–	–	0.7335	–
x1 = 0.3354	0.8149	–	–	–
x1 = 0.3917	0.94	0.867	0.803	0.74
x1 = 0.4199	–	–	0.8736	–
x1 = 0.4399	0.9747	–	–	–
x1 = 0.4993	1.146	1.074	0.954	0.872
x1 = 0.5404	1.169	–	–	–
x1 = 0.5446	–	–	1.039	–
x1 = 0.6003	1.406	1.253	1.139	1.03
x1 = 0.6191	–	–	1.19	–
x1 = 0.6382	1.427	–	–	–
x1 = 0.69	–	–	1.391	–
x1 = 0.6978	1.723	1.522	1.367	1.216
x1 = 0.7815	–	–	1.647	–
x1 = 0.8009	2.199	1.907	1.696	1.486
x1 = 0.835	–	–	1.891	–
x1 = 0.8998	2.822	2.423	2.122	1.863

CCCBr + ClC(Cl)(Cl)Cl
viscosity [mPa·s], 101 kPa
Conditions	293.15 K	303.15 K	313.15 K	323.15 K
x1 = 0.143	0.855	0.76	0.678	0.61
x1 = 0.294	0.775	0.691	0.621	0.562
x1 = 0.445	0.7	0.625	0.565	0.512
x1 = 0.625	0.637	0.581	0.52	0.472

COCCOCCOCCOC + ClC(Cl)(Cl)Cl
298.15 K, 101 kPa
Conditions	viscosity [mPa·s]
x1 = 0.0041	0.912
x1 = 0.0202	0.952
x1 = 0.0485	1
x1 = 0.0921	1.08
x1 = 0.1704	1.198
x1 = 0.2242	1.288
x1 = 0.2579	1.333
x1 = 0.2736	1.364
x1 = 0.3237	1.437
x1 = 0.3887	1.52
x1 = 0.4494	1.59
x1 = 0.5	1.646
x1 = 0.5522	1.696
x1 = 0.6149	1.75
x1 = 0.6542	1.79
x1 = 0.7187	1.826
x1 = 0.7623	1.846
x1 = 0.8533	1.891
x1 = 0.8992	1.913
x1 = 0.9312	1.929

COCCOCCOCCO + ClC(Cl)=C(Cl)Cl
298.15 K, 101.33 kPa
Conditions	viscosity [mPa·s]
x1 = 0.0078	0.862
x1 = 0.016	0.883
x1 = 0.0295	0.915
x1 = 0.047	0.956
x1 = 0.0598	0.989
x1 = 0.0696	1.016
x1 = 0.0802	1.046
x1 = 0.0924	1.081
x1 = 0.1201	1.162
x1 = 0.1568	1.28
x1 = 0.2009	1.432
x1 = 0.2413	1.592
x1 = 0.2894	1.795
x1 = 0.3457	2.047
x1 = 0.3797	2.209
x1 = 0.4041	2.334
x1 = 0.462	2.64
x1 = 0.4933	2.812
x1 = 0.5379	3.072
x1 = 0.5783	3.326
x1 = 0.6154	3.56
x1 = 0.6587	3.856
x1 = 0.7026	4.163
x1 = 0.7393	4.431
x1 = 0.787	4.797
x1 = 0.8264	5.117
x1 = 0.886	5.597
x1 = 0.9108	5.82
x1 = 0.9403	6.053
x1 = 0.9649	6.276
x2 = 0.0193	6.411

Reference: the CheMixHub viscosity set
